This note sets out measurements from patent US20230141603A1, “BENZODIAZEPINE DERIVATIVES AS GABA A GAMMA1 PAM” (Hoffmann-La Roche Inc., priority 2021, published 2023).

One assay addresses T1, h-GABAA α1β3γ2 (Homo sapiens, UniProt P14867+P18507).
T1 construct: expressed in transfected cells; host or cells: HEK293F cells, membranes
Briefly: Radioligand binding assay, [3H]Flumazenil competition, HEK293F membranes. The note with it: for γ2/γ1 Selectivity Ratio: Ki α1β3γ2 (nM)/Ki α2β2γ1 (nM); for LogSel: Log[Ki α1β3γ2 (nM)/Ki α2β2γ1 (nM)]. How it is done: The affinity of compounds at GABAA γ2 subunit-containing receptors was measured by competition for [^3H]Flumazenil (81.1 Ci/mmol; Roche) binding to HEK293F cells expressing human (transiently transfected) receptors of composition α1β3γ2.
Harvested pellets from HEK293F cells expressing the different GABAA γ2 receptor subtypes were resuspended in Mannitol Buffer pH 7.2-7.4 and processed as described above for the cells expressing the GABAA γ1 subunit-containing receptors.
Assays were incubated to equilibrium for 1 hour at 4° C. and harvested onto GF/C uni-filters (Packard) by filtration using a Packard harvester and washing with ice-cold wash buffer (50 mM Tris; pH 7.5). After drying, filter-retained radioactivity was detected by liquid scintillation counting. Ki values were calculated using Excel-Fit (Microsoft) and are the means of two determinations.

For another assay, the target named is T2, h-GABAA α1β2γ1 (Homo sapiens, UniProt P14867+Q8N1C3).
T2 construct: expressed in transfected cells; host or cells: HEK293F cells (ThermoFisher R79007), membranes
T2 sequence (P14867 28-456): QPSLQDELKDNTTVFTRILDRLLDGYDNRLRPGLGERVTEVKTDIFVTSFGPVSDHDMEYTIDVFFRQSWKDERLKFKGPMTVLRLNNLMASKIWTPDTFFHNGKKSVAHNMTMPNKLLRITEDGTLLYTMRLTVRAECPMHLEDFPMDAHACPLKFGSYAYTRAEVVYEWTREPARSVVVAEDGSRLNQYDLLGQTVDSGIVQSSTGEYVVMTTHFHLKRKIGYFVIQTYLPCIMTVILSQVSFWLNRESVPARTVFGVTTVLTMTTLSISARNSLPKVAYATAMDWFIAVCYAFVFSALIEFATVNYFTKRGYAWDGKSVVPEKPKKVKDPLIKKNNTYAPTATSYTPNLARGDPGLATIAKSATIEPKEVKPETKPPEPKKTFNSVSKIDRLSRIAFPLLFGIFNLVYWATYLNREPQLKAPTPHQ
T2 sequence (P47870 25-512 partner limits assumed): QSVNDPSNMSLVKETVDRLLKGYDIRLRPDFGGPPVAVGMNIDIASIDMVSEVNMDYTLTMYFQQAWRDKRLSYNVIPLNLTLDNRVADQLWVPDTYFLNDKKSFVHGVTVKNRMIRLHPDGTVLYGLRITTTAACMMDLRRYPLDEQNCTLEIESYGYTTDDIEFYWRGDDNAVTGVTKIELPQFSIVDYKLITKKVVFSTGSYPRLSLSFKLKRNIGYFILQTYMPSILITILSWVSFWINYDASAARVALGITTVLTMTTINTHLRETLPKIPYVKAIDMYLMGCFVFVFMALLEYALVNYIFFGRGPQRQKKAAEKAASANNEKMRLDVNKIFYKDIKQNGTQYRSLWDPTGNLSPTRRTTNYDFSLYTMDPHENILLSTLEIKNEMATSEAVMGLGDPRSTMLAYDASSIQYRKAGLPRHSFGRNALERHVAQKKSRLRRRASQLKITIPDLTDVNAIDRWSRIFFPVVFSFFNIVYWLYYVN
T2 sequence (Q8N1C3 36-465): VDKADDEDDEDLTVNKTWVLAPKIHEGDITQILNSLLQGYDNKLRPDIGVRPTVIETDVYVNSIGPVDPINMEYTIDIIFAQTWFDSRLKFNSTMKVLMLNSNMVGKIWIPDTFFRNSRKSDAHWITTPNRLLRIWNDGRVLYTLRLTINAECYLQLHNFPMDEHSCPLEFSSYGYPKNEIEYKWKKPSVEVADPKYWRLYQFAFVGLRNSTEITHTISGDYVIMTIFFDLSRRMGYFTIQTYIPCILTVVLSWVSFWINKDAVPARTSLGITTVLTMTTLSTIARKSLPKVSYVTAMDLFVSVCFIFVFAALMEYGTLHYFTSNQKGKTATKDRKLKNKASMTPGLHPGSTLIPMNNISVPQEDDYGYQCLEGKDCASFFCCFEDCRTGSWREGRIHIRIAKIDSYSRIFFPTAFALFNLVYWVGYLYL
Briefly: Radioligand binding assay, [3H]RO7239181 competition, HEK293F membranes. How it is done: The affinity of compounds at GABAA γ1 subunit-containing receptors was measured by competition for [^3H]RO7239181 (67.3 Ci/mmol; Roche) binding to membranes from HEK293F cells (ThermoFisher R79007) expressing human (transiently transfected) receptors of composition […], α2β2γ1, α1β2γ1.
Harvested pellets from HEK293F cells expressing the different GABAA receptor subtypes were resuspended in Mannitol Buffer pH 7.2-7.4 (Mannitol 0.29M, Triethylamine 10 mM, Acetic acid 10 mM, EDTA 1 mM plus protease inhibitors (20 tablets Complete, Roche Diagnostics Cat. No. 05 056 489 001 per liter)), washed two times and then resuspended at 1:10 to 1:15 dilution in the same buffer. Cell disruption was performed by stirring the suspension in a Parr vessel #4637 at 435 psi for 15 minutes, and then the suspensions were centrifuged at 1000×g for 15 minutes at 4° C. (Beckman Avanti J-HC; rotor JS-4.2). The supernatant (S1) was transferred in a 21 Schott flask and the pellet (P1) was resuspended with Mannitol Buffer up to 175 ml. The resuspended pellet was transferred into a 250 ml Corning centrifugal beaker and centrifuged at 1500×g for 10 minutes at 4° C. (Beckman Avanti J-HC; rotor JS-4.2). The supernatant (S1) was then transferred in the 21 Schott flask and the pellet was discarded. The supernatants (S1) were centrifuged in 500 ml Beckman polypropylene centrifugal beaker at 15′000×g for 30 minutes at 4° C. (Beckman Avanti J-20 XP; rotor JLA-10.500). The pellet (P2) was resuspended with Mannitol Buffer 1:1 and frozen at −80° C. The supernatant (S2) was centrifuged in 100 ml Beckman polypropylene centrifugal tubes at 48000×g for 50 minutes at 4° C. (Beckman Avanti J-20 XP; rotor JA-18). The supernatant (S3) was discarded and the pellet (P3) was resuspended with 1:1 Mannitol Buffer. The P2 and P3 protein concentration was determined with the BIORAD Standard assay method with bovine serum albumin as standard and measured on the NANO-Drop 1000. The membrane suspension was aliquots (500 μl per tube) and stored at −80° C. until required. Membrane homogenates were resuspended and polytronised (Polytron PT1200E Kinematica AG) in Potassium Phosphate 10 mM, KCl 100 mM binding buffer at pH 7.4 to a final assay concentration determined with a previous experiment.
Assays were incubated to equilibrium for 1 hour at 4° C. and then, membranes were filtered onto unifilter (96-well white microplate with bonded GF/C filters preincubated 20-50 minutes in 0.3% Polyethylenimine) with a Filtermate 196 harvester (Packard BioScience) and washed 4 times with cold Potassium Phosphate 10 mM pH 7.4, KCl 100 mM binding buffer. After drying, filter-retained radioactivity was detected by liquid scintillation counting. Ki values were calculated using Excel-Fit (Microsoft) and are the means of two determinations.

A word on the Ki: it is the dissociation constant of the complex between target and ligand, obtained from inhibition or displacement.

Consider `Fc1cccc(F)c1C1=NCc2nnc(C3CCOCC3)n2-c2ccc(Cl)c(Cl)c21` [Example 11, 7,8-dichloro-6-(2,6-difluorophenyl)-1-tetrahydropyran-4-yl-4H-[1,2,4]triazolo[4,3-a][1,4]benzodiazepine], for which the Ki on h-GABAA α1β3γ2 was 690 nM. On h-GABAA α1β3γ2 (Table 1), the “γ2/γ1 Selectivity Ratio” value came to 14.1 and the LogSel is 1.15. Further, the Ki on h-GABAA α1β2γ1 was 60.3 nM.
The corresponding values for `Fc1cccc(F)c1C1=NCc2nnc(-c3ccncn3)n2-c2ccc(Cl)c(Cl)c21` [Example 12, 7,8-dichloro-6-(2,6-difluorophenyl)-1-pyrimidin-4-yl-4H-[1,2,4]triazolo[4,3-a][1,4]benzodiazepine] are 490 nM, 47.3, 1.67 and 17.6 nM.
`O=c1[nH]nc2n1-c1ccc(Br)c(Cl)c1C(c1c(F)cccc1F)=NC2` [Example 13, 8-bromo-7-chloro-6-(2,6-difluorophenyl)-2,4-dihydro-[1,2,4]triazolo[4,3-a][1,4]benzodiazepin-1-one] showed a Ki on h-GABAA α1β3γ2 of 331 nM. Moreover, on h-GABAA α1β3γ2 (Table 1), the “γ2/γ1 Selectivity Ratio” value was determined as 53.5 and the LogSel is on record as 1.73. The compound further gave a Ki on h-GABAA α1β2γ1 of 6.2 nM.
Turning to `Fc1cccc(F)c1C1=NCc2nnc(-c3cccnn3)n2-c2ccc(Cl)c(Cl)c21` [Example 14, 7,8-dichloro-6-(2,6-difluorophenyl)-1-pyridazin-3-yl-4H-[1,2,4]triazolo[4,3-a][1,4]benzodiazepine], the Ki on h-GABAA α1β3γ2 was found to be 299 nM; on h-GABAA α1β2γ1, 5.2 nM. In addition, the “γ2/γ1 Selectivity Ratio” value at h-GABAA α1β3γ2 (Table 1) and on h-GABAA α1β3γ2 (Table 3) was 86.6 in each case. The LogSel at h-GABAA α1β3γ2 (Table 1) turned out to be 1.94; at h-GABAA α1β3γ2 (Table 3), 1.9.
Consider `Fc1cccc(F)c1C1=NCc2nncn2-c2ccc(Cl)c(Cl)c21` [Example 15, 7,8-dichloro-6-(2,6-difluorophenyl)-4H-[1,2,4]triazolo[4,3-a][1,4]benzodiazepine], for which the Ki on h-GABAA α1β3γ2 was 249 nM. Also, on h-GABAA α1β3γ2 (Table 1), the “γ2/γ1 Selectivity Ratio” value stood at 28.7 and the LogSel is listed as 1.46. Moreover, the Ki on h-GABAA α1β2γ1 was 11.5 nM.
Take `Cc1ccc2c(c1Cl)C(c1c(F)cccc1F)=NCc1n[nH]c(=O)n1-2` [Example 16, 7-chloro-6-(2,6-difluorophenyl)-8-methyl-2,4-dihydro-[1,2,4]triazolo[4,3-a][1,4]benzodiazepin-1-one]: the figures for the inhibition constant (Ki) at h-GABAA α1β3γ2 and at h-GABAA α1β2γ1 were 666 nM and 22.7 nM, respectively. At h-GABAA α1β3γ2 (Table 1), the “γ2/γ1 Selectivity Ratio” value was found to be 25.1. At h-GABAA α1β3γ2 (Table 1), this compound displayed a LogSel of 1.40.
The like results for `Cc1ccc2c(c1Cl)C(c1c(F)cccc1F)=NCc1nncn1-2` [Example 17, 7-chloro-6-(2,6-difluorophenyl)-8-methyl-4H-[1,2,4]triazolo[4,3-a][1,4]benzodiazepine] were, in that order, 493 nM, 47.7 nM, 24.9 and 1.40.
For `Fc1ccccc1C1=NCc2nnc(-c3ccncn3)n2-c2ccc(Cl)c(Cl)c21` [Example 18, 7,8-dichloro-6-(2-fluorophenyl)-1-pyrimidin-4-yl-4H-[1,2,4]triazolo[4,3-a][1,4]benzodiazepine], the Ki worked out at 865 nM on h-GABAA α1β3γ2 and 54.1 nM at h-GABAA α1β2γ1. In addition, at h-GABAA α1β3γ2 (Table 1), the “γ2/γ1 Selectivity Ratio” value was found to be 40.1. The LogSel on h-GABAA α1β3γ2 (Table 1) amounted to 1.60.
The like results for `COCCc1nnc2n1-c1ccc(Cl)c(Cl)c1C(c1c(F)cccc1F)=NC2` [Example 19, 7,8-dichloro-6-(2,6-difluorophenyl)-1-(2-methoxyethyl)-4H-[1,2,4]triazolo[4,3-a][1,4]benzodiazepine] were, in that order, 829 nM, 43.9 nM, 31.9 and 1.50.
The corresponding values for `Cc1ccc2c(c1Cl)C(c1c(F)cccc1F)=NCc1nnc(C)n1-2` [Example 20, 7-chloro-6-(2,6-difluorophenyl)-1,8-dimethyl-4H-[1,2,4]triazolo[4,3-a][1,4]benzodiazepine] are 289 nM, 37.1 nM, 12.2 and 1.09.
In the case of `CC(F)(F)c1ccc2c(c1Cl)C(c1c(F)cccc1F)=NCc1nncn1-2` [Example 21, 7-chloro-8-(1,1-difluoroethyl)-6-(2,6-difluorophenyl)-4H-[1,2,4]triazolo[4,3-a][1,4]benzodiazepine], the Ki at h-GABAA α1β3γ2 is 1790 nM. At h-GABAA α1β3γ2 (Table 1), the “γ2/γ1 Selectivity Ratio” value is on record as 34.5 and the LogSel worked out at 1.54. The affinity at h-GABAA α1β2γ1 corresponds to a Ki of 90.5 nM.
Take `Cc1nnc2n1-c1ccc(C(C)(F)F)c(Cl)c1C(c1c(F)cccc1F)=NC2` [Example 22, 7-chloro-8-(1,1-difluoroethyl)-6-(2,6-difluorophenyl)-1-methyl-4H-[1,2,4]triazolo[4,3-a][1,4]benzodiazepine]: the values for the Ki on h-GABAA α1β3γ2 and at h-GABAA α1β2γ1 were 2790 nM and 68.7 nM, respectively. For the same compound, the “γ2/γ1 Selectivity Ratio” value at h-GABAA α1β3γ2 (Table 1) is 74.6. For the same compound, on h-GABAA α1β3γ2 (Table 1), the LogSel stood at 1.87.
Regarding `Fc1cccc(F)c1C1=NCc2nncn2-c2ccc(C(F)F)c(Cl)c21` [Example 23, 7-chloro-8-(difluoromethyl)-6-(2,6-difluorophenyl)-4H-[1,2,4]triazolo[4,3-a][1,4]benzodiazepine], the Ki amounted to 1200 nM on h-GABAA α1β3γ2 and 63.9 nM on h-GABAA α1β2γ1. Also, on h-GABAA α1β3γ2 (Table 1), the “γ2/γ1 Selectivity Ratio” value amounted to 22.0. For the same compound, the LogSel on h-GABAA α1β3γ2 (Table 1) is 1.34.
